Reference: US6395896B2, “Pyridazine derivatives, manufacturing method and related composition” (Shiseido Co., Ltd., priority 1999, dated 2002)

Experiments:
[1] = Drug stabilization effect (photostabilizer, sunlight exposure); set-up: key to Sunlight exposure (80 MJ) Appearance: A: No change; B: No almost change; C: Yes change; settings: for Sunlight exposure (80 MJ) Appearance / Sunlight exposure (80 MJ) Residual yield [%]: photostabilizer 0.05, amounts wt %
Description: Next, the photo stabilization effect and changes in appearance in drug compositions were studied according to the following evaluation formulation.
Each test sample was prepared. Appearance changes of the samples exposed to sunlight (80 MJ) was observed (visual evaluation). Also, residual yield was measured by liquid chromatography.

[2] = Drug stabilization effect (sequestering agent combination); set-up: key to Sunlight exposure (80 MJ) Appearance: A: No change; B: No almost change; C: Yes change; settings: for Sunlight exposure (80 MJ) Appearance / Sunlight exposure (80 MJ) Residual yield [%]: amounts wt %
Description: Next, when combined with a sequestering agent, the photostabilization effect and appearance change of a composition for each drug was studied by the following evaluation formulation.
Each test sample was prepared. Appearance change of the samples exposed to sunlight (around 80 MJ) was observed (visual evaluation). Also, residual yield of a drug was measured by liquid chromatography.

skin (face) = test: Skin irritation test: continuous use test; assay type: in vivo, human; settings: 10 wt % ultraviolet absorbent, twice a day for 4 weeks
Description: Sample (10 wt % of ultraviolet absorbent) is the same as test example 2. The continuous use test by the healthy subjects was carried out with one group of twenty subjects. A proper amount of each sample was applied to the face twice a day for 4 weeks. The evaluation standard of Table 5 was judged. [table] The calculated average score was evaluated by the next standard. A: Average score is 0. B: Average score is over 0 and less than 1. C: Average score is 1 or more, and less than 2. D: Average score is 2 or more.

skin (antebrachium) = test: Skin irritation test: occlusive patch test; assay type: in vivo, human; settings: 10 wt % ultraviolet absorbent, occlusive patch 24 hours
Description: Sample (10 wt % of ultraviolet absorbent) is the same as test example 2. An occlusive patch test was carried out in the antebrachium part of healthy men and women subjects by finchamber for 24 hours. Each group was twenty subjects. [table] Each of the calculated average scores was evaluated by the following evaluation standard. A: average score is 0. B: average score is over 0 and less than 1. C: average score is 1 or more and less than 2. D: average score is 2 or more.

[3] = Photostability test (aqueous solution exposed to sunlight); assay type: physicochemical; settings: sunlight 80 MJ/m^2, two weeks
Description: After an aqueous solution of the pyridazine derivative of the present invention was exposed to sunlight (Amount of solar radiation exposure 80 MJ/m^2) for two weeks, residual yield and change of appearance were checked. UV absorption spectrum (Solvent: water, concentration: 10 ppm, Light path: 1 cm) was measured by spectrophotometer. Area value was calculated by integrating over the range of 290 nm to 400 nm of the ultraviolet rays absorption spectrum. The area value was compared with the value before sunlight exposure.
The residual yield and change of area value of ultraviolet rays absorption spectrum were evaluated by the following standard.
A: 95% or more of area value before sunlight exposure.
B: 90% or more and less than 95% of area value before sunlight exposure.
C: 70% or more and less than 90% of area value before sunlight exposure.
D: less than 70% of area value before sunlight exposure.

sunburn = test: Ultraviolet rays prevention effect test on a beach (lotion and cream samples); assay type: in vivo, human
Description: The prevention effect test was carried out on a beach during the summer. Equal amounts of sample were applied to the right and left sides of the backs of test subjects. After direct sunlight exposure, the degree of sunburn was evaluated in accordance with the following criteria. Each group consisted of 20 subjects. (Criterion) Remarkable effect: None or almost no sunburn symptom was found. Positive effect: Slight sunburn symptom was found. Negative effect: Strong sunburn symptom was found. (Evaluation) A: Subject of remarkable effect or positive effect is 80% or more. B: Subject of remarkable effect or positive effect is 50% or more and less than 80%. C: Subject of remarkable effect or positive effect is 30% or more and less than 50%. D: Subject of remarkable effect or positive effect is less than 30% (ii) Preparation of sample (A) Lotion [table] Each of water phase and alcohol phase was prepared. Then each was mixed. (B) Cream [table] The propylene glycol was added to ion-exchanged water and was dissolved, which was kept at 70° C. by heating (Water phase). The other components were mixed and melted by heating and was kept at 70° C. (Oil phase). The oil phase was added to the water phase, and an emulsion was formed.. After it was homogeneously emulsified with a homogenixer, it was cooled at 30° C. with stirring well.

[4] = drug 2-o-α-α-glucopyranosyl-L-ascorbic acid 2.0
[5] = drug Dibutylhydroxytoluene 0.01
[6] = drug Dipotassium glycyrrhizinate 0.05
[7] = drug L-ascorbic acid 2-(dl-α-tocopheryl hydrogen phosphate) potassium salt 0.01
[8] = drug combined with photostabilizer, sunlight 80 MJ, summary of Table 23
[9] = drug 2-o-α-α-glucopyranosyl-L-ascorbic acid 2.0, photostabilizer 0.03 + Sodium metaphosphate 0.03
[10] = drug 2-o-α-α-glucopyranosyl-L-ascorbic acid 2.0, photostabilizer 0.03, no sequestering agent
[11] = drug Dibutylhydroxytoluene 0.01, photostabilizer 0.03 + Sodium metaphosphate 0.03
[12] = drug Dibutylhydroxytoluene 0.01, photostabilizer 0.03, no sequestering agent
[13] = drug Dipotassium glycyrrhizinate 0.05, photostabilizer 0.03 + Sodium metaphosphate 0.03
[14] = drug Dipotassium glycyrrhizinate 0.05, photostabilizer 0.03, no sequestering agent
[15] = drug L-ascorbic acid 2-(dl-α-tocopheryl hydrogen phosphate) potassium salt 0.01, photostabilizer 0.03 + Trisodium hydroxyethyl ethylenediamine triacetate 0.03
[16] = drug L-ascorbic acid 2-(dl-α-tocopheryl hydrogen phosphate) potassium salt 0.01, photostabilizer 0.03, no sequestering agent
[17] = drug Salicylic acid 0.1, photostabilizer 0.03 + Trisodium ethylenediamine tetraacetate 0.03
[18] = drug Salicylic acid 0.1, photostabilizer 0.03, no sequestering agent

Structure (SMILES): Oc1nncc(N2CCOCC2)c1N1CCOCC1 [4,5-Dimorpholino-3-hydroxypyridazine]
- Sunlight exposure (80 MJ) Appearance [1, 4]: A
- Sunlight exposure (80 MJ) Residual yield [%] [1, 4]: 99.3%
- Sunlight exposure (80 MJ) Appearance [1, 5]: A
- Sunlight exposure (80 MJ) Residual yield [%] [1, 5]: 98.8%
- Sunlight exposure (80 MJ) Appearance [1, 6]: A
- Sunlight exposure (80 MJ) Residual yield [%] [1, 6]: 100.3%
- Sunlight exposure (80 MJ) Appearance [1, 7]: A
- Sunlight exposure (80 MJ) Residual yield [%] [1, 7]: 99.4%
- Sunlight exposure (80 MJ) Appearance ([1]; drug Salicylic acid 0.1): A
- Sunlight exposure (80 MJ) Residual yield [%] ([1]; drug Salicylic acid 0.1): 100.3%
- appearance changes of the composition [1, 8]: small
- residual yield of a drug [1, 8]: very high in comparison with other photostabilizers
- Sunlight exposure (80 MJ) Appearance [2, 9]: A
- Sunlight exposure (80 MJ) Residual yield [%] [2, 9]: 99.3%
- Sunlight exposure (80 MJ) Appearance [2, 10]: A
- Sunlight exposure (80 MJ) Residual yield [%] [2, 10]: 98.3%
- Sunlight exposure (80 MJ) Appearance [2, 11]: A
- Sunlight exposure (80 MJ) Residual yield [%] [2, 11]: 98.8%
- Sunlight exposure (80 MJ) Appearance [2, 12]: B
- Sunlight exposure (80 MJ) Residual yield [%] [2, 12]: 95.8%
- Sunlight exposure (80 MJ) Appearance [2, 13]: A
- Sunlight exposure (80 MJ) Residual yield [%] [2, 13]: 100.0%
- Sunlight exposure (80 MJ) Appearance [2, 14]: A
- Sunlight exposure (80 MJ) Residual yield [%] [2, 14]: 97.2%
- Sunlight exposure (80 MJ) Appearance [2, 15]: A
- Sunlight exposure (80 MJ) Residual yield [%] [2, 15]: 99.4%
- Sunlight exposure (80 MJ) Appearance [2, 16]: B
- Sunlight exposure (80 MJ) Residual yield [%] [2, 16]: 98.5%
- Sunlight exposure (80 MJ) Appearance [2, 17]: A
- Sunlight exposure (80 MJ) Residual yield [%] [2, 17]: 100.1%
- Sunlight exposure (80 MJ) Appearance [2, 18]: B
- Sunlight exposure (80 MJ) Residual yield [%] [2, 18]: 99.2%
- residual yield of a drug ([2]; with a sequestering agent, compared with compositions without, Table 30): very small
- Judgment (continuous use test, average skin reaction score) (skin (face); Cream): A (Average score is 0.)
- Judgment (continuous use test, average skin reaction score) (skin (face); Lotion): A (Average score is 0.)
- Judgment (patch test, average skin reaction score) (skin (antebrachium); Cream): A (average score is 0.)
- Judgment (patch test, average skin reaction score) (skin (antebrachium); Lotion): A (average score is 0.)
- Residual yield [3]: A (95% or more of area value before sunlight exposure.)
- Change of area value of UV absorption spectrum ([3]; 290 nm to 400 nm): A (95% or more of area value before sunlight exposure.)
- UV prevent effect (sunburn; Cream, ultraviolet absorbent 0.0005 wt %): C (Subject of remarkable effect or positive effect is 30% or more and less than 50%.)
- UV prevent effect (sunburn; Cream, ultraviolet absorbent 0.001 wt %): B (Subject of remarkable effect or positive effect is 50% or more and less than 80%.)
- UV prevent effect (sunburn; Cream, ultraviolet absorbent 0.1 wt %): A (Subject of remarkable effect or positive effect is 80% or more.)
- UV prevent effect (sunburn; Cream, ultraviolet absorbent 1 wt %): A (Subject of remarkable effect or positive effect is 80% or more.)
- UV prevent effect (sunburn; Cream, ultraviolet absorbent 5 wt %): A (Subject of remarkable effect or positive effect is 80% or more.)
- UV prevent effect (sunburn; Cream, ultraviolet absorbent 10 wt %): A (Subject of remarkable effect or positive effect is 80% or more.)
- UV prevent effect (sunburn; Cream, ultraviolet absorbent 20 wt %): A (Subject of remarkable effect or positive effect is 80% or more.)
- UV prevent effect (sunburn; Lotion, ultraviolet absorbent 0.0005 wt %): C (Subject of remarkable effect or positive effect is 30% or more and less than 50%.)
- UV prevent effect (sunburn; Lotion, ultraviolet absorbent 0.001 wt %): B (Subject of remarkable effect or positive effect is 50% or more and less than 80%.)
- UV prevent effect (sunburn; Lotion, ultraviolet absorbent 0.01 wt %): A (Subject of remarkable effect or positive effect is 80% or more.)
- UV prevent effect (sunburn; Lotion, ultraviolet absorbent 1 wt %): A (Subject of remarkable effect or positive effect is 80% or more.)
- UV prevent effect (sunburn; Lotion, ultraviolet absorbent 5 wt %): A (Subject of remarkable effect or positive effect is 80% or more.)
- UV prevent effect (sunburn; Lotion, ultraviolet absorbent 10 wt %): A (Subject of remarkable effect or positive effect is 80% or more.)
- UV prevent effect (sunburn; Lotion, ultraviolet absorbent 20 wt %): A (Subject of remarkable effect or positive effect is 80% or more.)
